The text below walks through data of PubChem BioAssay (NCI).

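1) Cells in 96-well plates. 2) Compound, 48 h, 5 concentrations. 3) Linear interpolation between surrounding doses. 4) Unreached endpoint = highest concentration. GI50 marks 50% less growth. The concentration for full growth arrest is given as TGI.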

Test systems include ACHN renal; SF-268 CNS; MOLT-4 leukemia; RPMI-8226 leukemia; A549 NSCLC; RXF 393 renal; HS 578T breast; HCC-2998 colon; SK-MEL-5 melanoma; SN12C renal.
Holding throughout (assay): inhibition of tumour cell growth, NCI panel, 48 h

For `Nc1cccc2c1CN(C1CCC(=O)NC1=O)C2=O` (stereo not given), the GI50 with ACHN renal is over 100 µM; in the assay with SF-268 CNS it was over 100 µM; with MOLT-4 leukemia it was over 100000 nM; in the assay with RPMI-8226 leukemia it was over 100000 nM; with A549 NSCLC it was over 100000 nM; with RXF 393 renal it was over 100000 nM. Further, the GI50 was over 100000 nM with HS 578T breast, over 100 µM in the assay with HCC-2998 colon, over 100000 nM with SK-MEL-5 melanoma and over 100 µM in the assay with SN12C renal. Further, the TGI with ACHN renal, in the assay with SF-268 CNS, in the assay on MOLT-4 leukemia, in the assay on RPMI-8226 leukemia, with A549 NSCLC and with RXF 393 renal was over 100 µM throughout. Further, the TGI with HS 578T breast, in the assay on HCC-2998 colon, with SK-MEL-5 melanoma and in the assay on SN12C renal was over 100 µM each time.
For `CCN1CCN(CC(=O)Nc2nc3ccc(NCc4ccc(C)cc4)cc3s2)CC1`, the GI50 in the assay with ACHN renal is 6.06 µM; in the assay on SF-268 CNS, 5.76 µM; in the assay with MOLT-4 leukemia, 1590 nM; in the assay with RPMI-8226 leukemia it was 1090 nM; with A549 NSCLC it was 2290 nM; with RXF 393 renal, 1990 nM. For the same molecule, the GI50 in the assay on HS 578T breast was 5120 nM; in the assay on HCC-2998 colon, 6.5 µM; with SK-MEL-5 melanoma, 975 nM; with SN12C renal it was 4.11 µM. The TGI in the assay with ACHN renal came to 12.3 µM; in the assay with SF-268 CNS it was 16.5 µM; in the assay on MOLT-4 leukemia it was 5.99 µM; in the assay on RPMI-8226 leukemia it was 3.34 µM; in the assay with A549 NSCLC, 8.61 µM; in the assay on RXF 393 renal, 8.5 µM. For the same molecule, the TGI in the assay with HS 578T breast came out at 15.9 µM; with HCC-2998 colon, 14.6 µM; with SK-MEL-5 melanoma, 2.01 µM; in the assay with SN12C renal, 11.1 µM.
Take `CCCCCCCCn1ccc2cc(NC(=O)Cn3cc(CN4CCC(C)CC4)nn3)ccc21`: the GI50 was 1.63 µM with ACHN renal; 1.82 µM in the assay on SF-268 CNS; 2020 nM in the assay on MOLT-4 leukemia; 2060 nM in the assay on RPMI-8226 leukemia; 1740 nM in the assay with A549 NSCLC; 1500 nM with RXF 393 renal. For the same molecule, the GI50 with HS 578T breast is 1600 nM; in the assay on HCC-2998 colon, 1.74 µM; with SK-MEL-5 melanoma, 1720 nM; with SN12C renal, 1.68 µM. The TGI was 2.99 µM in the assay with ACHN renal; 3.53 µM in the assay on SF-268 CNS; 5.55 µM with MOLT-4 leukemia; 4.82 µM with RPMI-8226 leukemia; 3.4 µM in the assay with A549 NSCLC; 3.08 µM in the assay on RXF 393 renal. The TGI was 4.12 µM in the assay with HS 578T breast, 3.24 µM with HCC-2998 colon, 3.09 µM with SK-MEL-5 melanoma and 3.16 µM in the assay with SN12C renal.
As to `C/C(=C\CCc1ccsc1)CC/C=C(\C)CCCN1CCN(CCO)CC1`, the GI50 is 4.67 µM in the assay on ACHN renal; 5.44 µM with SF-268 CNS; 2480 nM in the assay on MOLT-4 leukemia; 1920 nM in the assay with RPMI-8226 leukemia; 3050 nM in the assay on A549 NSCLC; 1820 nM in the assay on RXF 393 renal. Moreover, the GI50 in the assay with HS 578T breast is 2700 nM; in the assay on HCC-2998 colon, 1.97 µM; in the assay on SK-MEL-5 melanoma, 1590 nM; in the assay with SN12C renal, 4.13 µM. Further, the TGI in the assay with ACHN renal is 17.4 µM; with SF-268 CNS it was 19.8 µM; in the assay with MOLT-4 leukemia, 6.29 µM; with RPMI-8226 leukemia it was 4.57 µM; in the assay with A549 NSCLC it was 13.3 µM; with RXF 393 renal, 5.42 µM. Besides, the TGI in the assay with HS 578T breast is 8.07 µM; with HCC-2998 colon, 3.63 µM; in the assay on SK-MEL-5 melanoma, 2.97 µM; with SN12C renal it was 19.2 µM.
`Cc1ccc(NC(C(=O)c2ccccc2)c2ccccc2)cc1` (stereo not given): the GI50 in the assay with ACHN renal is 7.94 µM; in the assay on SF-268 CNS it was 3.1 µM; in the assay with MOLT-4 leukemia it was 4710 nM; in the assay with RPMI-8226 leukemia it was 2710 nM; in the assay with A549 NSCLC, 4080 nM; in the assay on RXF 393 renal it was 17600 nM. In addition, the GI50 is 2090 nM with HS 578T breast, 4.52 µM in the assay with HCC-2998 colon, 2840 nM in the assay on SK-MEL-5 melanoma and 3.55 µM in the assay with SN12C renal. Besides, the TGI is over 100 µM in the assay on ACHN renal; 14.2 µM with SF-268 CNS; over 100 µM in the assay on MOLT-4 leukemia; 14.6 µM in the assay with RPMI-8226 leukemia; over 100 µM with A549 NSCLC; 46.3 µM in the assay on RXF 393 renal. Further, the TGI in the assay on HS 578T breast was 7.79 µM; in the assay on HCC-2998 colon, over 100 µM; in the assay with SK-MEL-5 melanoma, 14.5 µM; in the assay on SN12C renal, over 100 µM.
As to `C=C1C(=O)O[C@H]2[C@H]1CC/C(COC(=O)c1cccc3ccccc13)=C\CC[C@@]1(C)O[C@@H]21`, the GI50 with ACHN renal was 1.52 µM; in the assay with SF-268 CNS, 1.6 µM; in the assay on MOLT-4 leukemia it was 2950 nM; with RPMI-8226 leukemia, 1350 nM; in the assay with A549 NSCLC, 2120 nM; in the assay on RXF 393 renal it was 1050 nM. Also, the GI50 in the assay with HS 578T breast is 1980 nM; in the assay with HCC-2998 colon it was 1.98 µM; in the assay on SK-MEL-5 melanoma, 1620 nM; with SN12C renal, 1.73 µM. In addition, the TGI in the assay with ACHN renal was 2.86 µM; in the assay with SF-268 CNS it was 3.38 µM; in the assay with MOLT-4 leukemia, 12.8 µM; with RPMI-8226 leukemia, 4.54 µM; with A549 NSCLC, 5.4 µM; in the assay with RXF 393 renal, 2.32 µM. Further, the TGI was 6.01 µM with HS 578T breast, 3.76 µM in the assay on HCC-2998 colon, 2.98 µM with SK-MEL-5 melanoma and 3.67 µM in the assay with SN12C renal.
Consider `CC(=O)Nc1c(I)c(C(=O)O)c(I)c(N(C)C(C)=O)c1I`, for which the GI50 in the assay with ACHN renal is over 100 µM; with SF-268 CNS, over 100 µM; with MOLT-4 leukemia it was over 100000 nM; with RPMI-8226 leukemia, over 100000 nM; in the assay with A549 NSCLC it was over 100000 nM; in the assay on RXF 393 renal, over 100000 nM. The GI50 with HS 578T breast was 46400 nM; in the assay on HCC-2998 colon, over 100 µM; in the assay with SK-MEL-5 melanoma, over 100000 nM; in the assay with SN12C renal, over 100 µM. The TGI with ACHN renal, with SF-268 CNS, with MOLT-4 leukemia, in the assay on RPMI-8226 leukemia, in the assay with A549 NSCLC and in the assay with RXF 393 renal was over 100 µM throughout. Further, the TGI in the assay with HS 578T breast, in the assay with HCC-2998 colon, with SK-MEL-5 melanoma and with SN12C renal was over 100 µM throughout.
